Measured values taken from ChEMBL document CHEMBL1201862, “PubChem BioAssay data set” (2004).
The source made the active and inactive calls.

Experiments:
[1] = target: T1, DNA repair protein RAD52 homolog (Homo sapiens, UniProt P43351); type: functional, biochemical
T1 sequence (P43351 whole entry): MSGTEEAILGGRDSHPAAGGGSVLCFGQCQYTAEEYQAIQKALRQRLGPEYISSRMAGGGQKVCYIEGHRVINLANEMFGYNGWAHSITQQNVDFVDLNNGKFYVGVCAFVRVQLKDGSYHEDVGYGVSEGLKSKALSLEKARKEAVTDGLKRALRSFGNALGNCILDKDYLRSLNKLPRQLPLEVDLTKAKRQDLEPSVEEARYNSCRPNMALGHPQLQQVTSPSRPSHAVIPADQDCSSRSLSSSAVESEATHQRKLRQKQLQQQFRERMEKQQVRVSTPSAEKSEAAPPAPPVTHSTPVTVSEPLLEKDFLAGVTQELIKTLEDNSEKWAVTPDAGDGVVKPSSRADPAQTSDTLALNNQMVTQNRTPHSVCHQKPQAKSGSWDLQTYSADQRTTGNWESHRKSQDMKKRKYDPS

[2] = target: DNA repair and recombination protein RAD54-like (Homo sapiens, UniProt Q92698); experiment: RAD54 Holliday junction migration blockers – biochemical, fluorescence, cherry-picked samples, dose series, confirmation (AID 651657); type: functional
cells [3] = type: functional, cell-based
[4] = target: T2, Trace amine-associated receptor 1 (Homo sapiens, UniProt Q96RJ0); experiment: Counterscreen for agonists of the human trace amine associated receptor 1 (hTAAR1): Fluorescence-based cell-based high throughput dose response assay to identify hTAAR1 agonist that also desensitize TAAR1 receptor response.; type: functional
T2 sequence (Q96RJ0 whole entry): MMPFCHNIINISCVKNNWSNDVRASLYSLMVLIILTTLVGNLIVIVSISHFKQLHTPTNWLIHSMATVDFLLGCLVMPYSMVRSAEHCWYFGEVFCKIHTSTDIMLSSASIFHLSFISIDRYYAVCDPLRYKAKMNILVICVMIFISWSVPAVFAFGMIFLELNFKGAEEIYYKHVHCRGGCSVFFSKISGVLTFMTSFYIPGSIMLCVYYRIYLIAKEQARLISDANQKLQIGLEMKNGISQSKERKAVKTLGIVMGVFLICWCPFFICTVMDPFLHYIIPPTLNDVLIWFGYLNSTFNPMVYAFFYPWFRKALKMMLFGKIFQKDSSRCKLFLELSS

cells [5] = type: functional, cell-based; remark: listed apart in the source
[6] = target: T2, Trace amine-associated receptor 1; experiment: Fluorescence-based cell-based high throughput dose response assay to identify agonists of the human trace amine associated receptor 1 (TAAR1).; type: functional
[7] = target: Fructose-bisphosphate aldolase (Mycobacterium tuberculosis, UniProt P9WQA3); experiment: Fluorescence-based biochemical high throughput dose response assay for inhibitors of the fructose-bisphosphate aldolase (FBA) of M. tuberculosis.; type: functional
fMet-Leu-Phe receptor = fMet-Leu-Phe receptor (Homo sapiens, UniProt P21462); experiment: formyl peptide receptor binders – dose response (AID 519); type: functional
Cytochrome P450 3A4 = Cytochrome P450 3A4 (Homo sapiens, UniProt P08684);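 note: CYP3A4 tested as one member of a cytochrome P450 panel screen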
Cytochrome P450 2C9 = Cytochrome P450 2C9 (Homo sapiens, UniProt P11712)
HeLa = experiment: viability loss in HeLa cells – cell-based, ATP luminescence, cherry-pick samples, cytotoxicity control, dose response (AID 687004); type: functional; conditions: Homo sapiens
HEK293 = experiment: viability loss in HEK293T cells – cell-based, ATP luminescence, cherry-pick samples, cytotoxicity control, dose response (AID 687005); type: functional; conditions: Homo sapiens;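 note: cells exposed to compound for 48 hours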
[8] = HEK293 Cytotoxicity Assay Measured in Cell-Based System Using Plate Reader - 7071-01_Inhibitor_Dose_CherryPick_Activity_Set2.; type: functional
[9] = target: T3, Methionyl-tRNA synthetase, putative (Trypanosoma brucei brucei, UniProt Q38C91); type: functional, Trypanosoma brucei brucei strain 927/4 GUTat10.1;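 note: Read-out by fluorescence polarization, run as a confirmatory high-throughput counterscreen; potency of MetRS inhibitors measured by reduced AMP formation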
T3 sequence (Q38C91 whole entry): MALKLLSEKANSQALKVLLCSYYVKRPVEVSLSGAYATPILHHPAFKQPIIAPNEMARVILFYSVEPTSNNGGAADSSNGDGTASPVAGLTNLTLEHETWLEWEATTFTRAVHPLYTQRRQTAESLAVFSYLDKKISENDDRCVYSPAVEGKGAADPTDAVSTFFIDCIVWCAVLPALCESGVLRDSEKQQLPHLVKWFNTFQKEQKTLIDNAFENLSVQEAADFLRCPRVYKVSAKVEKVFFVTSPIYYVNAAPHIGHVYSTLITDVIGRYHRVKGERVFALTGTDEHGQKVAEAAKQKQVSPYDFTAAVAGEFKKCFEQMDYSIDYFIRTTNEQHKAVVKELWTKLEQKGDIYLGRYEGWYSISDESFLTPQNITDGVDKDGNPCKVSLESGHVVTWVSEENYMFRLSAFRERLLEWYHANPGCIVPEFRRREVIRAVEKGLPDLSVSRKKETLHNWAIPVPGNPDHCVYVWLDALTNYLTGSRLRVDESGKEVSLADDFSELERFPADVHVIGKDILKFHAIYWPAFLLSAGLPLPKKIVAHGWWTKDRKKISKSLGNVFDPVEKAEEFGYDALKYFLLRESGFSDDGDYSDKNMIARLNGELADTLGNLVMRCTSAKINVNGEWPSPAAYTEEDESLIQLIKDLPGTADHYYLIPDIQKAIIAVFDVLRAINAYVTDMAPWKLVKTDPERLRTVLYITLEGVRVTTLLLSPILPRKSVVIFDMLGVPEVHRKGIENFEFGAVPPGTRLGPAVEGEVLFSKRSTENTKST

[10] = IGROV1 cell killing – plate reader, dry powder samples, PAX8 inhibitor project, dose response (AID 743043); type: functional, cell-based; conditions: IGROV-1
Paired box protein Pax-8 = Paired box protein Pax-8 (Homo sapiens, UniProt Q06710); experiment: PAX8 transcriptional activity inhibition in RMG-I – RMG-I cells, luciferase, cherry-pick, dose response (AID 687027); type: functional, cell-based;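 note: luciferase reporter driven by Pax8 target thyroperoxidase promoter measured by SteadyGlo luminescence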
[11] = OVCAR8 cell viability loss – plate reader, dry powder samples, PAX8 project, dose response (AID 743197); type: functional, cell-based; conditions: OVCAR-8

Chain of Paired box protein Pax-8 (Q06710 whole entry): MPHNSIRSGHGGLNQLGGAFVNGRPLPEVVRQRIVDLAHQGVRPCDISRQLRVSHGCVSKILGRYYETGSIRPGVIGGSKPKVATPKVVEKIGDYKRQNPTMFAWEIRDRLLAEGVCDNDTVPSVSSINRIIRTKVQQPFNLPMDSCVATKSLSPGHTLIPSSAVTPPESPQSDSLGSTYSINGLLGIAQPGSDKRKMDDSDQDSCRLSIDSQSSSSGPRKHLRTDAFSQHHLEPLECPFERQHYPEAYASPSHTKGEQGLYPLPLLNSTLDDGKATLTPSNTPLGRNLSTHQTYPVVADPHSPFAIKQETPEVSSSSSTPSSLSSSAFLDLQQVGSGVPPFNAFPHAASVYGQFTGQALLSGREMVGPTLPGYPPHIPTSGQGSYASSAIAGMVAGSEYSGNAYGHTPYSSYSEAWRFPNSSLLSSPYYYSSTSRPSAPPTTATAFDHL
Chain of DNA repair and recombination protein RAD54-like (Q92698 whole entry): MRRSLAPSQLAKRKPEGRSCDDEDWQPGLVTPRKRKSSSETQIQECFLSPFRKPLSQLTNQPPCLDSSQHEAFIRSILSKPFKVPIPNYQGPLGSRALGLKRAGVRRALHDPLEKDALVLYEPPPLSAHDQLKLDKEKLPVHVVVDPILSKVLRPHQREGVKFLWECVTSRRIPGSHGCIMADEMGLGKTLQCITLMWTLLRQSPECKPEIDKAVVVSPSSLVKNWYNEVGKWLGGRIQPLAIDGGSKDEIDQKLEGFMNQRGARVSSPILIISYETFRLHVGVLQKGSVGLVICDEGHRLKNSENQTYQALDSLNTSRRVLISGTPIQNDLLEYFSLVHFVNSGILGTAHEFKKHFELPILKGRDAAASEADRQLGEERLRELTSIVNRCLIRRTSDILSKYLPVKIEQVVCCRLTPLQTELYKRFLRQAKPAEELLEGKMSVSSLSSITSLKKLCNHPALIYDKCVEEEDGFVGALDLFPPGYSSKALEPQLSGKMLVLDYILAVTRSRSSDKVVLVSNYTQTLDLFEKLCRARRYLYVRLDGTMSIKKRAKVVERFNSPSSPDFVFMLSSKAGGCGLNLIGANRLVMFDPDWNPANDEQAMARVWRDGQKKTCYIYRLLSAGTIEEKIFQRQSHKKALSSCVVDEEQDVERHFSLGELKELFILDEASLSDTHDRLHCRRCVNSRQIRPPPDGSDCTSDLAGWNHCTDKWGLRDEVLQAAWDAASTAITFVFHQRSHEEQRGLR
Chain of fMet-Leu-Phe receptor (P21462 whole entry): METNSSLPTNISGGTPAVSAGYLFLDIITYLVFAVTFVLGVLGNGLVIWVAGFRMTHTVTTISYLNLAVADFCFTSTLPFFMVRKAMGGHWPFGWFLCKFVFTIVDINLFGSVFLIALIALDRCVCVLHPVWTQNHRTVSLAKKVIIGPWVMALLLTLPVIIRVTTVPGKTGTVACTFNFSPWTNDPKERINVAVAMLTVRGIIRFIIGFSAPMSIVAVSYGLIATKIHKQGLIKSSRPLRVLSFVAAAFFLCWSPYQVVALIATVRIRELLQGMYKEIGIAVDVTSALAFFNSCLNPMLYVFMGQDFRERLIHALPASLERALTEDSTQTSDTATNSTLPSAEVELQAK
Chain of Cytochrome P450 2C9 (P11712 whole entry): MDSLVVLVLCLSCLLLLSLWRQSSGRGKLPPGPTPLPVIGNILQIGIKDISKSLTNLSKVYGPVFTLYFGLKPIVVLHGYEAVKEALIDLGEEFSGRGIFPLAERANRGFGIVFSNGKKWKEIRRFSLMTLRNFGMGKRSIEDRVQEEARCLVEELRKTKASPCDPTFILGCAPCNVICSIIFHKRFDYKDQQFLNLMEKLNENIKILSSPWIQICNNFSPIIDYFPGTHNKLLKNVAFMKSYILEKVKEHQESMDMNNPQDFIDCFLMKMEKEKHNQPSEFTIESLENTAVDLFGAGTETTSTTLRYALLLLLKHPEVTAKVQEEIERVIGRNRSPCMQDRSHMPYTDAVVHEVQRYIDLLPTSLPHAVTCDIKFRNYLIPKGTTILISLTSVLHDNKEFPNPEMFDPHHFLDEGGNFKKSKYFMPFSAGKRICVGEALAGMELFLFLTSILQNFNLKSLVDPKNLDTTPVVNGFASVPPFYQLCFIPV
Chain of Fructose-bisphosphate aldolase (P9WQA3 whole entry): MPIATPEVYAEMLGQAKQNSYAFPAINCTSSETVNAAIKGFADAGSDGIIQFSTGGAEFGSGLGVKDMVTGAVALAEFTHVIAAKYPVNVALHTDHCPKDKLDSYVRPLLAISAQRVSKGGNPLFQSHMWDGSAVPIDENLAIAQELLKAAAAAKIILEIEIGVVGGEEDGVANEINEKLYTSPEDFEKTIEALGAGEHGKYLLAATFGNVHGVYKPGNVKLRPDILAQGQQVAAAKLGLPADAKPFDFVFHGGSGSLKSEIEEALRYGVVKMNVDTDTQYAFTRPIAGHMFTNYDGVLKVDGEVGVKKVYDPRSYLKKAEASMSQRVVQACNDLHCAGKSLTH
Chain of Cytochrome P450 3A4 (P08684 whole entry): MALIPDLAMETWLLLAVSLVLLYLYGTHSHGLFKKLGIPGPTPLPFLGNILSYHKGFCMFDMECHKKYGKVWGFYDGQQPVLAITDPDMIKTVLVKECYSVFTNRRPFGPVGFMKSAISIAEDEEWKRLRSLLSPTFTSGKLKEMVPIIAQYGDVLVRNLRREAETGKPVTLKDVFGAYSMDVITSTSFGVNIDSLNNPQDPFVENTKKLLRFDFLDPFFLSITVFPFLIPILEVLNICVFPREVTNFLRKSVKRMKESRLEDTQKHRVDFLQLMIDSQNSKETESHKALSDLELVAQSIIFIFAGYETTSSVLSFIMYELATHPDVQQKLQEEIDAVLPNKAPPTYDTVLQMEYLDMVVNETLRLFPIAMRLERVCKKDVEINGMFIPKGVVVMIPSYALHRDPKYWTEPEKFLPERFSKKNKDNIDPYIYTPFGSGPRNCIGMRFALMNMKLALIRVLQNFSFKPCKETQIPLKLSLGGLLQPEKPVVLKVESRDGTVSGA

Structure (SMILES): Cc1cc(C)c2c(c1)c1nnc(SCCN3CCCCC3)nc1n2C
- AC50 [1]: 6.11 µM (active)
- AC50 [2]: 11 µM (active)

Structure (SMILES): COC(=O)[C@]12C[C@H](CC(=O)NCCc3ccccc3OC)C(=O)N(Cc3ccccc3)C1=C[C@H](C(C)(C)C)O[C@@H]2C
- EC50 (cells [3]): > 29.9 µM (inactive)
- IC50 [4]: 7.35 µM (active)
- IC50 (cells [5]): > 29.9 µM (inactive)
- EC50 [6]: 2.45 µM (active)

Structure (SMILES): O=C(c1ccccc1)c1ccc(OCC(O)CN2CCOCC2)cc1 (stereo unspecified)
- IC50 [7]: > 9.99 µM (inactive)

Structure (SMILES): Cc1cccc(CCNCc2cc3ccc(C)cc3nc2O)c1
- EC50 (cells [3]): 24.9 µM (inactive)
- IC50 [4]: 7.79 µM (active)
- IC50 (cells [5]): > 29.9 µM (inactive)
- EC50 [6]: 3.44 µM (active)

Structure (SMILES): CCOc1cccc(C(=O)C2=C(O)C(=O)N(Cc3ccco3)C2c2ccncc2)c1 (stereo unspecified)
- Ki (fMet-Leu-Phe receptor): > 66.7 µM (inactive)
- AC50 (Cytochrome P450 3A4): 22.4 µM (inconclusive)
- AC50 (Cytochrome P450 2C9): 14.1 µM (inconclusive)

Structure (SMILES): C[C@@H]1CN([C@H](C)CO)S(=O)(=O)c2ccc(-c3ccccc3)cc2O[C@H]1CN(C)C(=O)C1CCCCC1
- AC50 (HeLa): > 52 µM (inactive)
- AC50 (HEK293): 16.2 µM (active)
- AC50 [8]: 16.2 µM (active)

Structure (SMILES): Cc1ccc2nc(-c3ccc(SCC(=O)Nc4ccc5c(c4)OCCO5)nc3)[nH]c2c1
- IC50 [9]: 21.5 µM (inactive)

Structure (SMILES): C[C@@H]1CCCCO[C@@H](CN(C)Cc2ccc(C(F)(F)F)cc2)[C@H](C)CN([C@@H](C)CO)C(=O)c2cc(NS(=O)(=O)c3ccc(F)cc3)ccc2O1
- AC50 [10]: 55.8 µM (active)
- AC50 (Paired box protein Pax-8): 5.83 µM (active)
- AC50 [11]: > 70 µM (inactive)
